In one series the test system is vie aquatique. Conditions: long-term effects; cited from earlier work.
For a further series, the system named is Planaires adultes entier. The settings on record: adult planarians, 12 days, checks at 7 and 12 days, 0,22 mg/L - 22 mg/L; for Concentration à partir de laquelle une mortalité significative du planaire est observée: according to Zhang et al. 2019; for Concentration à partir de laquelle sont observés des troubles du comportement potentiellement liés à des troubles cognitifs du planaire: adhérence, vitesse de déplacement, repos, phototaxie, scrunching.

For series [1] the following is noted: cited from earlier work.

Procedure for Planaires adultes entier: La méthodologie utilisée est la suivante Tous les composés sont fournis sous forme de poudres. Un volume approprié de DMSO 100 % (Sigma) a été ajouté, comme indiqué sur les tubes, pour obtenir une solution mère à 4,4 mg/ml (soit 200 fois plus concentrée que la concentration maximale de test).

Take Bis(nonylphényl)amine [Irganox® L67]: the “Toxicité (Informations ECHA - 2021): vie aquatique (écotoxique)” value with vie aquatique is “Est nocif pour la vie aquatique avec des effets à long terme (écotoxique) https://echa.europa.eu/fr/substance-information/-/substanceinfo/100.048.393 Evaluation en 2021 pour suspicion de Mutagénicité et PBT”.

For `CC(C)CC(C)Nc1ccc(Nc2ccccc2)cc1` (centres unmarked) [compound 22, N-(1,3-Diméthylbutyl)-N'-phényl-p-phénylènediamine], in the series on Planaires adultes entier, the “Concentration à partir de laquelle une mortalité significative du planaire est observée” value was 4,8 mg/L and the “Concentration à partir de laquelle sont observés des troubles du comportement potentiellement liés à des troubles cognitifs du planaire” value is given as 1,5 mg/L.

On to `c1ccc(Nc2cccc3ccccc23)cc1` [compound 19, N-phénylnaphthalène-1-amine], for which, in the series with Planaires adultes entier, the “Concentration à partir de laquelle une mortalité significative du planaire est observée” value was 6,9 mg/L and the “Concentration à partir de laquelle sont observés des troubles du comportement potentiellement liés à des troubles cognitifs du planaire” value was 2,2 -3,9 mg/L. Further, the “Toxicité (Informations ECHA - 2021): vie aquatique (écotoxique)” value in the series with vie aquatique is given as “Est très toxique pour la vie aquatique avec des effets à long terme (écotoxique)”. Also, the “Toxicité (Informations ECHA - 2021): toxicité aiguë” value in series [1] (if swallowed) is reported as “est nocif s'il est avalé (toxicité aiguë)”. Besides, the “Toxicité (Informations ECHA - 2021): dommages aux organes” value in series [1] (prolonged or repeated exposure) is reported as “peut causer des dommages aux organes par exposition prolongée ou répétée”.

The values above are taken from patent EP4514928B1, “USE OF AN ANTIOXIDANT FOR REDUCING AND/OR PREVENTING THE TOXICITY OF A LUBRICANT COMPOSITION” (priority 2022, dated 2023).
